Test [1] addresses BCL6 (Homo sapiens, UniProt P41182). Conditions: well-characterized Boehringer Ingelheim inhibitor; read-out: in vitro IC50; cited from earlier work.
In test [2] the target is GSK3beta (Homo sapiens, UniProt P49841). As to the kind of experiment: UV-B induced denaturation of cell lysates, immunoblot of soluble fraction, GSK3beta. The test is classed as binding. Conditions: lysates exposed to UV-B for 4 min; FIG. 29B.
Sequence of GSK3beta (P49841 whole entry, species assumed): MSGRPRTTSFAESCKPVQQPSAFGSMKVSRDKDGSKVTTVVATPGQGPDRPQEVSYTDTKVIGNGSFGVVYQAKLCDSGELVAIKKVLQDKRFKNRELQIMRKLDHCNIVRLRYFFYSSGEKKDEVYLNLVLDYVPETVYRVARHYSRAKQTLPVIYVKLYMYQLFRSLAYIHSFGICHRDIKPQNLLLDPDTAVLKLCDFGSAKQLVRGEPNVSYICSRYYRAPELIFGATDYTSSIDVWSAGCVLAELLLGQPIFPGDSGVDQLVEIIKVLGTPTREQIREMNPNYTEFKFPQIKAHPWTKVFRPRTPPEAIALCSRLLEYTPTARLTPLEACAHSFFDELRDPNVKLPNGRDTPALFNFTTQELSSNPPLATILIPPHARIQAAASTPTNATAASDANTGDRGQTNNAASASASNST

Consider `CNC(=O)COc1cc2cc(Nc3nc(N4CCC(C(=O)N(C)C)CC4)ncc3Cl)cc(OC)c2n(C)c1=O` [BI-3812], for which, in test [1], the half-inhibitory concentration (IC50) – broadly, the concentration that gives 50% inhibition – was roughly 3 nM.
Regarding `Cc1c[nH]c(-c2cnc(NCCNc3ccc(C#N)cn3)nc2-c2ccc(Cl)cc2Cl)n1` [CHIR99021], in test [2], the “stabilization of GSK3beta protein from UV-B induced denaturation” value is on record as “stabilization of the GSK3beta protein”.
